Experimental data reported in US8206732B2, “Pyrithione biocides enhanced by silver, copper, or zinc ions” (Arch Chemicals, Inc., priority 1999, dated 2012).
Values joined by “and” are separate entries in the source; they are usually repeats but may differ in a detail not shown here. Identical values can stand only once. Blank lines part the entries; values can stand above or below the compound they belong to.

How the values were obtained:
[1] = test system: Staphylococcus aureus 27217; assay: Checkerboard MIC test, pyrithiones with silver salts; format: cell-based; details: silver ion alone or in the inhibitory mixture; TSB pH 7.3, 35° C., 1 to 2 days
two cultures of fungi = assay: Challenge test in soluble oil metalworking fluid, fungi (Example 6); format: cell-based; details: soluble oil MWF, 10 ppm Zn, 100 ppm NaPT, 50 ppm ZPT or 50 ppm CuPT as in column head
[2] = test system: seven cultures of bacteria; assay: Challenge test in soluble oil metalworking fluid, bacteria (Example 6); format: cell-based; details: soluble oil MWF, 10 ppm Zn, 100 ppm NaPT, 50 ppm ZPT or 50 ppm CuPT as in column head
[3] = test system: Pseudomonas aeruginosa ATCC 9027; assay: MIC in Tryptic Soy Broth, microtiter (Example 1); format: cell-based; details: TSB, 28° C., incubated 5-6 days; single agent (NaPT without Cu)
[4] = test system: Aspergillus niger ATCC 6275; assay: MIC in Tryptic Soy Broth, microtiter (Example 1); format: cell-based
[5] = test system: Staphylococcus aureus ATCC 27217; assay: Zone of inhibition test (paper disc on TSA); format: cell-based; details: 6.5 mm discs; 0.135% pyrithione, 0.1% ZnCl2 or both; 28° C., 24 hr
[6] = test system: Staphylococcus aureus ATCC 27217; assay: Checkerboard MIC test, pyrithiones with zinc salts; format: cell-based; details: TSB, 28 C, 3 days
[7] = test system: Escherichia coli ATCC 10536; assay: Zone of inhibition test (paper disc on TSA); format: cell-based; details: 6.5 mm discs; 0.135% pyrithione, 0.1% ZnCl2 or both; 28° C., 24 hr
[8] = test system: Pseudomonas aeruginosa NCIMB 6749; assay: Zone of inhibition test (paper disc on TSA); format: cell-based; details: 6.5 mm discs; 0.135% pyrithione, 0.1% ZnCl2 or both; 28° C., 24 hr
Fusarium sp. = assay: Checkerboard MIC test, pyrithiones with zinc salts; format: cell-based; details: TSB, 28 C, 5 days
Description: Mixtures of pyrithione and zinc or silver in various proportions were tested for relative efficacy by a modification of the procedure described by Dougherty, et al.
Equal volumes of bacteria (10^6 cells/ml) or fungi (10^5 spores/ml) were added to each microtiter plate well. The plates were incubated at 28 C for 3 days (bacteria) or 5 days (fungi), and the minimum inhibitory concentration (MIC) of biocide was determined. The Fractional Inhibitory Concentration (FIC=concentration of biocide in an inhibitory mixture divided by the MIC of the pure biocide) was determined, and the FIC Index (sum of the two FIC's) was calculated. The type of interaction was categorized according to the magnitude of the Index: Synergistic (<1), Additive (1), or Antagonistic (>1).

[9] = test system: Pseudomonas aeruginosa NCIMB 6749; assay: Checkerboard MIC test, pyrithiones with zinc salts; format: cell-based; details: TSB, 28 C, 3 days
[10] = test system: E. coli 8739 free-living cells; assay: Viable free-living cells in bulk metalworking fluid (Example 5); format: cell-based, Escherichia coli; details: 10% TSB; 100 PPM NaPT, 10 PPM Zn (II) or both; 4 days after treatment
E. coli 8739 biofilm = assay: Viable biofilm cells on discs in metalworking fluid (Example 5); format: cell-based, Escherichia coli; details: 10% TSB, polycarbonate disc; 100 PPM NaPT, 10 PPM Zn (II) or both; 4 days after treatment
Fusarium sp. biofilm = assay: as above; format: cell-based; details: polycarbonate disc, 100 PPM NaPT, 10 PPM Zn (II) or both, 4 days after treatment
Description: (§1) Experiments were conducted to investigate the efficacy of the composition of the present invention to inhibit the survival, growth, and proliferation of free-living and biofilm populations of bacteria and fungi in metalworking fluids. […] Metalworking fluids (MWF) employed included 5% soluble oil MWF, 5% semi-synthetic MWF, or 5% synthetic MWS. For testing against bacteria, metalworking fluids were supplemented with 2% (weight-to-weight ratio (w:w)) of 5 g/L yeast extract (Difco), Metalworking fluids were supplemented with 2% (weight-to-weight (w:w)) of Tryptic Soy Broth (Difco) for fungal tests.
(§2) For each experiment, three ml of a 5% metalworking fluid was added to each of twelve, sterile, 16 mm×150 mm glass culture tubes. […] Fusarium sp. was added to the tubes to final concentrations of 10^5 spores/ml for the fungal tests. Tubes incubated for 3 days at 28° C. and 180 rpms.
(§3) After the treatments additions were performed, the culture tubes resumed incubation at 28° C., 180 rpms for an additional 4 days.
(§4) After 4 days, culture tubes were removed from the incubator and viable counts of organisms from the bulk MWF fluid and the biofilm were determined using serial dilution and drop plating techniques. For biofilms, polycarbonate discs were removed from tubes, dip-rinsed in three successive washes of de-ionized water to remove loosely attached cells, and transferred to 25 mm×150 mm culture tubes containing 10 ml of sterile, de-ionized water. Biofilms were removed from discs and resuspended by vortexing tubes for 30 seconds. Bacteria were plated on to R2A Agar plates and incubated at 37° C. Fungi were plated onto Malt Agar plates and incubated at 28° C. Mean colony forming units per ml (for bulk) and per square cm (cm^2) biofilm were determined for each experimental treatment.

[11] = test system: Fusarium sp. free-living cells; assay: Viable free-living cells in bulk metalworking fluid (Example 5); format: cell-based; details: 100 PPM NaPT, 10 PPM Zn (II) or both, 4 days after treatment
Description: as §1, §2, §3, §4

[12] = test system: mixed bacteria (Pseudomonas aeruginosa 9027, Escherichia coli 8739, Pseudomonas fluorescens 12201, Pseudomonas rubescens 12202, Pseudomonas putida); assay: Various mixtures of NaPT and Zn(II) against bacteria in 5% metalworking fluid (Example 8, Table 10a); format: cell-based, Pseudomonas spp.
[13] = test system: Fusarium sp. and Cephalosporium sp.; assay: Various mixtures of NaPT and Zn(II) against fungi in 5% metalworking fluid (Example 8, Table 10b); format: cell-based
Ps. aeruginosa ATCC 9027 = assay: Checkerboard MIC test, pyrithiones with zinc salts; format: cell-based, Pseudomonas aeruginosa; details: Zn(II) from ZnO, alone or in the inhibitory mixture; TSB, 28 C, 3 days
[14] = test system: Aspergillus niger ATCC 6275; assay: Checkerboard MIC test, pyrithiones with zinc salts; format: cell-based; details: Zn(II) from ZnO, alone or in the inhibitory mixture; TSB, 28 C, 5 days
[15] = pyrithione alone or pyrithione concentration in the inhibitory mixture
[16] = Zn(II) alone or Zn(II) concentration in the inhibitory mixture
[17] = semi-synthetic, Zn (II) 10 PPM, Day 1
[18] = semi-synthetic, Zn (II) 10 PPM, Day 2
[19] = semi-synthetic, Zn (II) 10 PPM, Day 7
[20] = semi-synthetic, Zn (II) 20 PPM, Day 1
[21] = semi-synthetic, Zn (II) 20 PPM, Day 2
[22] = semi-synthetic, Zn (II) 20 PPM, Day 7
[23] = semi-synthetic, Zn (II) 30 PPM, Day 1
[24] = semi-synthetic, Zn (II) 30 PPM, Day 2
[25] = semi-synthetic, Zn (II) 30 PPM, Day 7
[26] = semi-synthetic, Zn (II) 100 PPM, Day 1
[27] = semi-synthetic, Zn (II) 100 PPM, Day 4
[28] = semi-synthetic, Zn (II) 500 PPM, Day 1
[29] = semi-synthetic, Zn (II) 500 PPM, Day 4
[30] = synthetic, Zn (II) 10 PPM, Day 1
[31] = synthetic, Zn (II) 20 PPM, Day 1

MIC Ag^+1 Ion [1]: 29.8 ppm
SMILES: [Ag+].[Ag+].[O-2] [Ag2O]

SMILES: On1ccccc1=S.On1ccccc1=S.[Cu] [CuPT2, copper pyrithione]
FUNGI (cfu/ml) (two cultures of fungi; DAY 0): 2.4 × 10^5 cfu/ml
FUNGI (cfu/ml) (two cultures of fungi; DAY 6): 1000 cfu/ml
FUNGI (cfu/ml) (two cultures of fungi; DAY 13): 680 cfu/ml
FUNGI (cfu/ml) (two cultures of fungi; DAY 20): 370 cfu/ml
BACTERIA (cfu/ml) ([2]; DAY 0): 3.2 × 10^7 cfu/ml
BACTERIA (cfu/ml) ([2]; DAY 6): 1.5 × 10^7 cfu/ml
BACTERIA (cfu/ml) ([2]; DAY 13): 9.7 × 10^6 cfu/ml
BACTERIA (cfu/ml) ([2]; DAY 20): 1.9 × 10^6 cfu/ml
MIC [3]: >1024 ppm
molar MIC ([4]; Aspergillus niger): 51 µM
MIC ([4]; TSB, 28° C., incubated 7-8 days, single agent (NaPT without Cu)): 16 ppm

SMILES: O.O.O.O=S(=O)([O-])[O-].[Mg+2].[O-][n+]1ccccc1SSc1cccc[n+]1[O-] [MDS, MgSO4.3H2O adduct of 2,2′-dithiopyridine-1,1′-dioxide]
Zone of Inhibition [5]: 28 mm
MIC Pyrithione [6, 15]: 8 ppm
Zone of Inhibition [7]: 31 mm
Zone of Inhibition [8]: 0 mm
MIC Pyrithione (Fusarium sp.; [15]): >1843 ppm
MIC Pyrithione [9, 15]: 1024 ppm

SMILES: [Cl-].[Cl-].[Zn+2] [ZnCl2]
Zone of Inhibition [5]: 0 mm
Zone of Inhibition [7]: 0 mm
Zone of Inhibition [8]: 0 mm

SMILES: O=S(=O)([O-])[O-].[Zn+2] [ZnSO4]
viable free-living microorganisms [10]: 5.8 × 10^8 cells/ml
viable biofilm microorganisms (E. coli 8739 biofilm): 6.5 × 10^5 cells/cm^2
MIC Zn(II) [6, 16]: 200 ppm
viable biofilm microorganisms (Fusarium sp. biofilm; 5% semisynth. MWF): 27 cells/cm^2
viable biofilm microorganisms (Fusarium sp. biofilm; 5% synthetic MWF): 1.4 × 10^5 cells/cm^2
viable biofilm microorganisms (Fusarium sp. biofilm; 100% TSB): 3.3 × 10^4 cells/cm^2
viable free-living microorganisms ([11]; 5% semisynth. MWF): 4.6 × 10^5 cells/ml
viable free-living microorganisms ([11]; 5% synthetic MWF): 8.7 × 10^6 cells/ml
viable free-living microorganisms ([11]; 100% TSB): 3.4 × 10^6 cells/ml
Bacteria/ml [12, 17]: 170 Bacteria/ml
Bacteria/ml [12, 18]: 3.2 × 10^5 Bacteria/ml
Bacteria/ml [12, 19]: 4.8 × 10^4 Bacteria/ml
Bacteria/ml [12, 20]: 1.5 × 10^5 Bacteria/ml
Bacteria/ml [12, 21]: 1.4 × 10^4 Bacteria/ml
Bacteria/ml [12, 22]: 4.0 × 10^3 Bacteria/ml
Bacteria/ml [12, 23]: 1.7 × 10^3 Bacteria/ml
Bacteria/ml [12, 24]: 1.5 × 10^5 Bacteria/ml
Bacteria/ml [12, 25]: 1.3 × 10^5 Bacteria/ml
Bacteria/ml [12, 26]: 4.9 × 10^4 Bacteria/ml
Bacteria/ml [12, 27]: 5.7 × 10^4 Bacteria/ml
Bacteria/ml [12, 28]: 9.5 × 10^4 Bacteria/ml
Bacteria/ml [12, 29]: 1.1 × 10^5 Bacteria/ml
Bacteria/ml [12, 30]: 30 Bacteria/ml
Bacteria/ml [12, 31]: 190 Bacteria/ml
MIC Zn(II) (Fusarium sp.; [16]): >200 ppm and <200 ppm
MIC Zn(II) [9, 16]: >200 ppm and <200 ppm
Fungi/ml [13, 17]: 1.0 × 10^4 Fungi/ml
Fungi/ml [13, 18]: 5.0 × 10^3 Fungi/ml
Fungi/ml [13, 19]: 4.8 × 10^2 Fungi/ml
Fungi/ml [13, 20]: 1.2 × 10^4 Fungi/ml
Fungi/ml [13, 21]: 1.6 × 10^4 Fungi/ml
Fungi/ml [13, 22]: 4.0 × 10^3 Fungi/ml
Fungi/ml [13, 23]: 1.2 × 10^4 Fungi/ml
Fungi/ml [13, 24]: 1.5 × 10^4 Fungi/ml
Fungi/ml [13, 25]: 1.3 × 10^3 Fungi/ml
Fungi/ml [13, 26]: 3.3 × 10^4 Fungi/ml
Fungi/ml [13, 27]: 1.1 × 10^4 Fungi/ml
Fungi/ml [13, 28]: 4.4 × 10^4 Fungi/ml
Fungi/ml [13, 29]: 2.0 × 10^4 Fungi/ml
Fungi/ml ([13]; semi-synthetic, Zn (II) 1000 PPM, Day 1): 4.1 × 10^4 Fungi/ml
Fungi/ml ([13]; semi-synthetic, Zn (II) 1000 PPM, Day 4): 1.0 × 10^4 Fungi/ml
Fungi/ml [13, 30]: 7.5 × 10^4 Fungi/ml
Fungi/ml ([13]; synthetic, Zn (II) 10 PPM, Day 2): 3.1 × 10^4 Fungi/ml
Fungi/ml ([13]; synthetic, Zn (II) 10 PPM, Day 7): 1.4 × 10^4 Fungi/ml
Fungi/ml [13, 31]: 3.9 × 10^4 Fungi/ml
Fungi/ml ([13]; synthetic, Zn (II) 20 PPM, Day 2): 2.2 × 10^4 Fungi/ml
Fungi/ml ([13]; synthetic, Zn (II) 20 PPM, Day 7): 1.3 × 10^4 Fungi/ml
Fungi/ml ([13]; synthetic, Zn (II) 30 PPM, Day 1): 4.2 × 10^4 Fungi/ml
Fungi/ml ([13]; synthetic, Zn (II) 30 PPM, Day 2): 2.1 × 10^4 Fungi/ml
Fungi/ml ([13]; synthetic, Zn (II) 30 PPM, Day 7): 5.0 × 10^3 Fungi/ml
Fungi/ml ([13]; synthetic, Zn (II) 100 PPM, Day 1): 2.1 × 10^4 Fungi/ml
Fungi/ml ([13]; synthetic, Zn (II) 100 PPM, Day 4): 6.0 × 10^3 Fungi/ml
Fungi/ml ([13]; synthetic, Zn (II) 500 PPM, Day 1): 9.0 × 10^3 Fungi/ml
Fungi/ml ([13]; synthetic, Zn (II) 500 PPM, Day 4): 5.0 × 10^3 Fungi/ml
Fungi/ml ([13]; synthetic, Zn (II) 1000 PPM, Day 1): 4.0 × 10^3 Fungi/ml
Fungi/ml ([13]; synthetic, Zn (II) 1000 PPM, Day 4): 2.0 × 10^3 Fungi/ml
Fungi/ml ([13]; synthetic, Zn (II) 5000 PPM, Day 1): 2.0 × 10^3 Fungi/ml
Fungi/ml ([13]; synthetic, Zn (II) 5000 PPM, Day 4): 4.0 × 10^3 Fungi/ml

MIC Zn(II) (Ps. aeruginosa ATCC 9027): >1645 ppm
MIC Zn(II) [14]: >1645 ppm
SMILES: [O]=[Zn] [ZnO]
